Data published in patent US20240416143A1, “PHOTONIC ANTIMICROBIAL WOUND SURFACE DRESSING” (The General Hospital Corporation, priority 2021, published 2024).

Key:
Test in all cases: Photoinactivation of 48-hour in vitro biofilms by adjuvant/antibiotic + antimicrobial blue light
E. coli biofilm = assay type: cell-based, Escherichia coli; settings: 48 h biofilm; aBL 405 nm, 50-250 J/cm^2
Description: (§1) The bacterial suspension was grown in a shaking incubator overnight in BHI broth. Cells were collected by centrifugation at 4,000 rpm for 5 minutes and suspended in PBS at a density of 10^6 CFU/mL. Then, the biofilms were grown for 48 hours (unless otherwise specified) in 96-well microtiter plates as described previously [Ref. 27], with a renewal of the media every 24 hours. Following the 48-hour biofilm growth, fresh 200 μL of PBS with or without menadione in different concentrations were added to the wells and the biofilms were incubated in the dark at 25° C. for 1 hour: 0, 0.5, 1, and 2 μg/mL for MRSA USA300, AF0001, IQ0064; 0, 1, 10, 30 and 50 μg/mL for P. aeruginosa PA01; and 0, 100, and 150 μg/mL for E. coli ATCC 25922. After that, the control and the menadione-treated biofilms were maintained without irradiation (“menadione/dark”). Simultaneously, the aBL was delivered to the other biofilm groups testing different power densities (50, 30, 15, and 10 mW/cm^2) while keeping the same radiant exposure of 250 J/cm^2. After the light exposure, the biofilms were carefully washed two times with PBS and 200 μL of PBS was added to each well. Then, the bacterial biofilms in each well were harvested by scratching with a sterile pipette tip and three wells of each group were pooled together in a 1.5 mL microcentrifuge tube. The total volume obtained, 600 μL (3 wells), was sonicated using a Branson 2510 Water Bath Sonicator (Marshall Scientific, LLC) for 5 minutes and the CFU was determined by 10-fold serial dilutions in PBS on BHI agar plates. CFU was counted after overnight incubation at 37° C. Experiments were performed in triplicate.
(§2) A bacterial suspension was grown in a shaking incubator overnight in BHI broth. Cells were collected by centrifugation at 4,000 rpm for 5 minutes and suspended in PBS at a density of 10^6 CFU/mL. Then, the biofilms were grown for 48 hours in 96-well microtiter plates with a renewal of the media every 24 hours. Following the 48-hour biofilm growth, fresh 200 μL of PBS with the tetracyclines minocycline, doxycycline, and demeclocycline in different concentrations were added to the wells and the biofilms were incubated in the dark at 25° C. for 1 hour: 0, 0.25, 0.5, and 1 μg/mL for minocycline; 0, 0.5, 1, and 2 μg/mL for doxycycline; and 0, 0.5, 1, and 2 for demeclocycline. After that, the control and the tetracycline-treated biofilms were maintained without irradiation (“menadione/dark”). […] The total volume obtained, 600 μL (3 wells), was sonicated using a Branson 2510 Water Bath Sonicator (Marshall Scientific, LLC) for 5 minutes and the CFU/mL was determined by 10-fold serial dilutions in PBS on BHI agar plates. CFU was counted after overnight incubation at 37° C.

MRSA biofilm [1] = assay type: cell-based, methicillin-resistant Staphylococcus aureus; settings: 48 h biofilm; aBL 405 nm, 50-250 J/cm^2
Description: as §1
A bacterial suspension was grown in a shaking incubator overnight in BHI broth. Cells were collected by centrifugation at 4,000 rpm for 5 minutes and suspended in PBS at a density of 10^6 CFU/mL. Then, the biofilms were grown for 48 hours in 96-well microtiter plates with a renewal of the media every 24 hours. Following the 48-hour biofilm growth, fresh 200 μL of PBS with the tetracyclines minocycline, doxycycline, and demeclocycline in different concentrations were added to the wells and the biofilms were incubated in the dark at 25° C. for 1 hour: 0, 0.25, 0.5, and 1 μg/mL for minocycline; 0, 0.5, 1, and 2 μg/mL for doxycycline; and 0, 0.5, 1, and 2 for demeclocycline. After that, the control and the tetracycline-treated biofilms were maintained without irradiation (“menadione/dark”). Simultaneously, the aBL (405 nm) was delivered to the other biofilm groups testing different power densities (50, 30 mW/cm^2) while keeping the radiant exposures of 50-250 J/cm^2. After the light exposure, the biofilms were carefully washed two times with PBS and 200 μL of PBS was added to each well. Then, the bacterial biofilms in each well were harvested by scratching with a sterile pipette tip and three wells of each group were pooled together in a 1.5 mL microcentrifuge tube. The total volume obtained, 600 μL (3 wells), was sonicated using a Branson 2510 Water Bath Sonicator (Marshall Scientific, LLC) for 5 minutes and the CFU/mL was determined by 10-fold serial dilutions in PBS on BHI agar plates. CFU was counted after overnight incubation at 37° C.

P. aeruginosa biofilm = assay type: cell-based, Pseudomonas aeruginosa; settings: 48 h biofilm; aBL 405 nm, 50-250 J/cm^2
Description: The bacterial suspension was grown in a shaking incubator overnight in BHI broth. Cells were collected by centrifugation at 4,000 rpm for 5 minutes and suspended in PBS at a density of 10^6 CFU/mL. Then, the biofilms were grown for 48 hours (unless otherwise specified) in 96-well microtiter plates as described previously [Ref. 27], with a renewal of the media every 24 hours. Following the 48-hour biofilm growth, fresh 200 μL of PBS with or without menadione in different concentrations were added to the wells and the biofilms were incubated in the dark at 25° C. for 1 hour: 0, 0.5, 1, and 2 μg/mL for MRSA USA300, AF0001, IQ0064; […]; and 0, 100, and 150 μg/mL for E. coli ATCC 25922. After that, the control and the menadione-treated biofilms were maintained without irradiation (“menadione/dark”). Simultaneously, the aBL was delivered to the other biofilm groups testing different power densities (50, 30, 15, and 10 mW/cm^2) while keeping the same radiant exposure of 250 J/cm^2. After the light exposure, the biofilms were carefully washed two times with PBS and 200 μL of PBS was added to each well. Then, the bacterial biofilms in each well were harvested by scratching with a sterile pipette tip and three wells of each group were pooled together in a 1.5 mL microcentrifuge tube. The total volume obtained, 600 μL (3 wells), was sonicated using a Branson 2510 Water Bath Sonicator (Marshall Scientific, LLC) for 5 minutes and the CFU was determined by 10-fold serial dilutions in PBS on BHI agar plates. CFU was counted after overnight incubation at 37° C. Experiments were performed in triplicate.
as §2

MRSA biofilm [2] = assay type: cell-based, methicillin-resistant Staphylococcus aureus; settings: 48 h biofilm

| SMILES | antimicrobial effect of aBL combined with tetracycline (E. coli biofilm) | antimicrobial effect of aBL combined with tetracycline (MRSA biofilm [1]) | antimicrobial effect of aBL combined with tetracycline (P. aeruginosa biofilm) | killing in biofilm by vancomycin combined with aBL (MRSA biofilm [2]; vancomycin 500 μg/mL + aBL 50 mW/cm^2, 250 J/cm^2) [log10 CFU/mL] | effect on biofilms of vancomycin combined with aBL (MRSA biofilm [2]; vancomycin 1 mg/mL) | improvement of aBL antimicrobial effect by vancomycin (MRSA biofilm [2]; vancomycin 5, 15 and 50 μg/mL + aBL 250 J/cm^2) |
| --- | --- | --- | --- | --- | --- | --- |
| CN(C)[C@@H]1C(O)=C(C(N)=O)C(=O)[C@@]2(O)C(O)=C3C(=O)c4c(O)ccc(Cl)c4[C@@H](O)[C@H]3C[C@@H]12 [demeclocycline] | enhancement in antimicrobial effects | enhancement in antimicrobial effects | enhancement in antimicrobial effects | – | – | – |
| CN[C@H](CC(C)C)C(=O)N[C@H]1C(=O)N[C@@H](CC(N)=O)C(=O)N[C@H]2C(=O)N[C@H]3C(=O)N[C@H](C(=O)N[C@H](C(=O)O)c4cc(O)cc(O)c4-c4cc3ccc4O)[C@H](O)c3ccc(c(Cl)c3)Oc3cc2cc(c3O[C@@H]2O[C@H](CO)[C@@H](O)[C@H](O)[C@H]2O[C@H]2C[C@](C)(N)[C@H](O)[C@H](C)O2)Oc2ccc(cc2Cl)[C@H]1O [vancomycin] | – | – | – | 2.65 | only minimal effects | did not show any improvement |
